Laboratory results taken from US9328106B2, “Cyclic ether pyrazol-4-yl-heterocyclyl-carboxamide compounds and methods of use” (Genentech, Inc., priority 2012, dated 2016).

How the values were obtained:
hERG potassium channel = hERG potassium channel (Homo sapiens (Human), UniProt Q12809); assay: hERG assay (IC50), automated PatchXpress in hERG-expressing HEK-293 cells; format: cell-based; details: 0.01-100 μM, 5 minutes after adding test article; for IC20 at 5 min: human, HEK-293 cells that express hERG
hERG potassium channel, sequence (Q12809 whole entry): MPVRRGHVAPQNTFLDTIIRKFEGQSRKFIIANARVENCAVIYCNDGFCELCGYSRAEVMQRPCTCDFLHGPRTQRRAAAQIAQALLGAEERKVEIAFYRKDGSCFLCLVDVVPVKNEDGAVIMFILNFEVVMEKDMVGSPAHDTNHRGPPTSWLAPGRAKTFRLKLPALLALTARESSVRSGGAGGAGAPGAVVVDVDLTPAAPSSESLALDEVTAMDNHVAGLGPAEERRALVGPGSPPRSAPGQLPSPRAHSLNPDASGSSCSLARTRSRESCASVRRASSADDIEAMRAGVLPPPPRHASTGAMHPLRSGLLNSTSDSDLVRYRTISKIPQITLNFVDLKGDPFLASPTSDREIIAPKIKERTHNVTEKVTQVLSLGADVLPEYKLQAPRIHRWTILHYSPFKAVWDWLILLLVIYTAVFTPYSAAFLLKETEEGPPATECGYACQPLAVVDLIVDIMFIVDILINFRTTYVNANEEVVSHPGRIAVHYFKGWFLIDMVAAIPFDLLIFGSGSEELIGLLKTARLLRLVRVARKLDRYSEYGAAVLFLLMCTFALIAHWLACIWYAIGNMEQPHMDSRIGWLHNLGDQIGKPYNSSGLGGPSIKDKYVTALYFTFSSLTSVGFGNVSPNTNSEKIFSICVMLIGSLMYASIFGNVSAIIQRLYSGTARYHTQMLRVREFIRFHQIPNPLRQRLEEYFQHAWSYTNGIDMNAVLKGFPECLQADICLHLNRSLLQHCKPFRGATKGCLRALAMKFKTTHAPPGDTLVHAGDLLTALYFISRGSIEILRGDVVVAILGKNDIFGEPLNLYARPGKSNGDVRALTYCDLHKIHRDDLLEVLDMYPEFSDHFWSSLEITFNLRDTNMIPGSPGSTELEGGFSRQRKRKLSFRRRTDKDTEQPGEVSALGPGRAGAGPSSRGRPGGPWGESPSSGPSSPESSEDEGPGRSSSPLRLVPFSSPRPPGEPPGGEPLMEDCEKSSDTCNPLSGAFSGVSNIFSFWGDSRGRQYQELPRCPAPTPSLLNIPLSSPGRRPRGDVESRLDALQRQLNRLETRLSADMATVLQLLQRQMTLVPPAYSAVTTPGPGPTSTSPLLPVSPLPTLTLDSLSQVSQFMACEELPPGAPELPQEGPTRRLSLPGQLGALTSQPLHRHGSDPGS
Procedure: The in vitro potential for hERG potassium channel current inhibition was assessed according to the study site standard procedures (ChanTest, Cleveland, Ohio). In brief, hERG inhibition (% max) was determined in hERG-expressing HEK-293 cells (n=2/concentration) using the automated PatchXpress 7000A system (Molecular Devices, Sunnyvale, Calif.) for 5 minutes after adding the test article.

PIM1 = PIM1 (Homo sapiens (Human), UniProt P11309); assay: biochemical; format: biochemical; details: 20 pM PIM1, 1 μM FAM-peptide, 10 μM ATP, 90 minutes at room temperature; read-out: PIM1 LC3K (KI)
PIM1, sequence (P11309 whole entry): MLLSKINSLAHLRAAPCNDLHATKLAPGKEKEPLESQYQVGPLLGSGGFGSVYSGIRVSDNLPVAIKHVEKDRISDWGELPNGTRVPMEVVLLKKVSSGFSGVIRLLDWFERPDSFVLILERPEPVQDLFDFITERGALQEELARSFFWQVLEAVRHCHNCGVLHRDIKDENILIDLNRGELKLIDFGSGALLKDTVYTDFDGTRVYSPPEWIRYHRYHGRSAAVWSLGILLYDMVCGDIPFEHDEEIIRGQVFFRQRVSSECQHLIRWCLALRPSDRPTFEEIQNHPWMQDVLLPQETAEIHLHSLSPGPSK

BaF3 parental cells = assay: In vitro cell proliferation, BaF3 parental line + IL3; format: cell-based, murine; details: Mus musculus, BaF3, BaF3 parental, mIL-3, incubated overnight, CELL TITER GLO; read-out: Prolif BaF3 IL3 (IC50);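 note: BaF3 parental cells are murine IL-3 dependent pro-B cells grown with 2 ng/mL mIL-3, 384-well format, viability read by luminescence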
BaF3 PIM1 cells = assay: In vitro cell proliferation, BaF3 transfected with PIM1; format: cell-based, murine; details: Mus musculus, BaF3, read-out: Prolif BaF3 PIM1 (IC50), BaF3 PIM1 cells, incubated overnight, CELL TITER GLO;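 note: murine IL-3-dependent pro-B BaF3 cells transfected with PIM1, compound exposure overnight at 37 °C under 5% CO2, viability read as luminescence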
[1] = test system: MM1.S (multiple myeloma) cells; assay: In vitro cell proliferation, MM1.S multiple myeloma cells; format: cell-based; details: Homo sapiens, MM1.S, 72 h, MM1.S cells, 72 hours, CELL TITER GLO; read-out: Prolif MM1S ATP (EC50);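 note: cells cultured in RPMI with 10% FBS and 2 mM L-Glutamine, seeded in 384-well plates, exposed to compound, cell viability measured by luminescence after CellTiter-Glo addition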

| Compound | Ki (PIM1) | IC50 (BaF3 PIM1 cells) | EC50 [1] | IC50 (hERG potassium channel) | IC20 at 5 min (hERG potassium channel) | IC50 (BaF3 parental cells) |
| --- | --- | --- | --- | --- | --- | --- |
| Cn1ncc(NC(=O)c2csc(-c3cc[nH]n3)n2)c1[C@@H]1CC[C@@H](N)[C@H](F)CO1 [Example 379, N-[5-[(2S,5R,6S)-5-amino-6-fluoro-oxepan-2-yl]-1-methyl-pyrazol-4-yl]-2-(1H-pyrazol-3-yl)thiazole-4-carboxamide] | 0.129 nM | 980 nM | 2900 nM | – | – | > 25000 nM |
| Cn1ncc(NC(=O)c2csc(-c3cccnc3)n2)c1[C@@H]1CC[C@@H](N)[C@H](F)CO1 [Example 383, N-[5-[(2S,5R,6S)-5-amino-6-fluoro-oxepan-2-yl]-1-methyl-pyrazol-4-yl]-2-(3-pyridyl)thiazole-4-carboxamide] | 0.991 nM | 823 nM | 5700 nM | – | – | 20800 nM |
| CC(C)Oc1ncccc1-c1nc(C(=O)Nc2cnn(C)c2[C@@H]2CC[C@@H](N)[C@H](F)CO2)cs1 [Example 384, N-[5-[(2S,5R,6S)-5-amino-6-fluoro-oxepan-2-yl]-1-methyl-pyrazol-4-yl]-2-(2-isopropoxy-3-pyridyl)thiazole-4-carboxamide] | 9.7 nM | 5600 nM | 4400 nM | – | – | 7200 nM |
| CN(C)c1ccc(-c2nc(C(=O)Nc3cnn(C)c3[C@@H]3CC[C@@H](N)[C@H](F)CO3)cs2)cn1 [Example 385, N-[5-[(2S,5R,6S)-5-amino-6-fluoro-oxepan-2-yl]-1-methyl-pyrazol-4-yl]-2-[6-(dimethylamino)-3-pyridyl]thiazole-4-carboxamide] | 0.2 nM | 118 nM | 1200 nM | – | – | 12000 nM |
| Cn1ncc(NC(=O)c2nc(-c3c(F)cccc3F)sc2N)c1N1CC[C@@H](N)[C@H](F)CC1 [No. 139 of US 2013/0079321, 5-amino-N-(5-((4R,5R)-4-amino-5-fluoroazepan-1-yl)-1-methyl-1H-pyrazol-4-yl)-2-(2,6-difluorophenyl)thiazole-4-carboxamide, reference compound] | – | – | – | – | 700 nM | – |

Further lines, with some results ahead:

| Ki (PIM1) | IC50 (BaF3 PIM1 cells) | EC50 [1] | Compound | IC50 (hERG potassium channel) | IC20 at 5 min (hERG potassium channel) | IC50 (BaF3 parental cells) |
| --- | --- | --- | --- | --- | --- | --- |
| 0.008 nM | – | – | CO[C@H]1CO[C@H](c2c(NC(=O)c3nc(-c4c(F)cccc4F)sc3N)cnn2C)CC[C@H]1N [Example 154, 5-Amino-N-[5-[(2S,5R,6R)-5-amino-6-methoxy-oxepan-2-yl]-1-methyl-pyrazol-4-yl]-2-(2,6-difluorophenyl)thiazole-4-carboxamide] | 9100 nM | 1600 nM | – |
| 0.00342 nM | – | – | Cn1ncc(NC(=O)c2nc(-c3c(F)cccc3F)sc2N)c1[C@@H]1CC[C@@H](N)[C@H](F)CO1 [Example 177, 5-Amino-N-[5-[(2S,5R,6S)-5-amino-6-fluoro-oxepan-2-yl]-1-methyl-pyrazol-4-yl]-2-(2,6-difluorophenyl)thiazole-4-carboxamide] | 16000 nM | 3900 nM | – |
| 0.022 nM | 79.4 nM | 640 nM | Cn1ncc(NC(=O)c2csc(-c3n[nH]c4ccccc34)n2)c1[C@@H]1CC[C@@H](N)[C@H](F)CO1 [Example 381, N-(5-((2S,5R,6S)-5-amino-6-fluorooxepan-2-yl)-1-methyl-1H-pyrazol-4-yl)-2-(1H-indazol-3-yl)thiazole-4-carboxamide] | – | – | 5800 nM |
| 0.954 nM | 3200 nM | 2000 nM | Cn1ncc(NC(=O)c2csc(-c3cc(=O)n(C)cc3F)n2)c1[C@@H]1CC[C@@H](N)[C@H](F)CO1 [Example 387, N-(5-((2S,5R,6S)-5-amino-6-fluorooxepan-2-yl)-1-methyl-1H-pyrazol-4-yl)-2-(5-fluoro-1-methyl-2-oxo-1,2-dihydropyridin-4-yl)thiazole-4-carboxamide] | – | – | 8200 nM |
